Paper PMC12951562, “SH2scan: Mapping SH2 Domain-Ligand Binding Selectivity for Inhibitors and Degraders” (Journal of Medicinal Chemistry, 2026)
Non-standard residues stand in square brackets, D forms with d. Residues, ends and D or L forms follow the SMILES beside them. pY = N[C@@H](Cc1ccc(OP(=O)(O)O)cc1)C(=O)O

Tests used:
Experiment in all cases: biochemical
Assay type in all cases: binding
PLCG2(SH2dom.N-term.) = target: T1, PLCG2(SH2dom.N-term.) (Homo sapiens, UniProt P16885)
T1 construct: SH2dom.N-term. denotes SH2 domain closest to N-terminus of protein; made in house; host or cells: HEK293 (transient transfection, unpurified extract)
T1 sequence (P16885 532-635 limits assumed): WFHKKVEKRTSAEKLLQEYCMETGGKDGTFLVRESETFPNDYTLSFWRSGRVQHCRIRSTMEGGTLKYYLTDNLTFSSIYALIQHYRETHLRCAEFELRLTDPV

CRK = target: T2, CRK (Homo sapiens, UniProt P46108)
T2 construct: the DNA-tagged SH2 domain concentrations used in this study were <0.1 nM; made in house; host or cells: HEK293 (transient transfection; unpurified extract)
T2 sequence (P46108 13-118 limits assumed): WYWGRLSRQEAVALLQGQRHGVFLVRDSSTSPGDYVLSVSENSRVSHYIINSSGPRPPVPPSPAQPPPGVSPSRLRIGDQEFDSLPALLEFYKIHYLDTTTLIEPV

GRB14 = target: T3, GRB14 (Homo sapiens, UniProt Q14449)
T3 construct: the DNA-tagged SH2 domain concentrations used in this study were <0.1 nM; made in house; host or cells: HEK293 (transient transfection; unpurified extract)
T3 sequence (Q14449 439-535 limits assumed): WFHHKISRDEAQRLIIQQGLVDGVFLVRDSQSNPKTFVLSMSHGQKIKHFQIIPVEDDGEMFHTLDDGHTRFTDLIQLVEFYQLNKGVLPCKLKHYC

SHIP2 = target: T4, SHIP2 (Homo sapiens, UniProt O15357)
T4 construct: made in house; host or cells: HEK293 (transient transfection), unpurified extract
T4 sequence (O15357 1-1258): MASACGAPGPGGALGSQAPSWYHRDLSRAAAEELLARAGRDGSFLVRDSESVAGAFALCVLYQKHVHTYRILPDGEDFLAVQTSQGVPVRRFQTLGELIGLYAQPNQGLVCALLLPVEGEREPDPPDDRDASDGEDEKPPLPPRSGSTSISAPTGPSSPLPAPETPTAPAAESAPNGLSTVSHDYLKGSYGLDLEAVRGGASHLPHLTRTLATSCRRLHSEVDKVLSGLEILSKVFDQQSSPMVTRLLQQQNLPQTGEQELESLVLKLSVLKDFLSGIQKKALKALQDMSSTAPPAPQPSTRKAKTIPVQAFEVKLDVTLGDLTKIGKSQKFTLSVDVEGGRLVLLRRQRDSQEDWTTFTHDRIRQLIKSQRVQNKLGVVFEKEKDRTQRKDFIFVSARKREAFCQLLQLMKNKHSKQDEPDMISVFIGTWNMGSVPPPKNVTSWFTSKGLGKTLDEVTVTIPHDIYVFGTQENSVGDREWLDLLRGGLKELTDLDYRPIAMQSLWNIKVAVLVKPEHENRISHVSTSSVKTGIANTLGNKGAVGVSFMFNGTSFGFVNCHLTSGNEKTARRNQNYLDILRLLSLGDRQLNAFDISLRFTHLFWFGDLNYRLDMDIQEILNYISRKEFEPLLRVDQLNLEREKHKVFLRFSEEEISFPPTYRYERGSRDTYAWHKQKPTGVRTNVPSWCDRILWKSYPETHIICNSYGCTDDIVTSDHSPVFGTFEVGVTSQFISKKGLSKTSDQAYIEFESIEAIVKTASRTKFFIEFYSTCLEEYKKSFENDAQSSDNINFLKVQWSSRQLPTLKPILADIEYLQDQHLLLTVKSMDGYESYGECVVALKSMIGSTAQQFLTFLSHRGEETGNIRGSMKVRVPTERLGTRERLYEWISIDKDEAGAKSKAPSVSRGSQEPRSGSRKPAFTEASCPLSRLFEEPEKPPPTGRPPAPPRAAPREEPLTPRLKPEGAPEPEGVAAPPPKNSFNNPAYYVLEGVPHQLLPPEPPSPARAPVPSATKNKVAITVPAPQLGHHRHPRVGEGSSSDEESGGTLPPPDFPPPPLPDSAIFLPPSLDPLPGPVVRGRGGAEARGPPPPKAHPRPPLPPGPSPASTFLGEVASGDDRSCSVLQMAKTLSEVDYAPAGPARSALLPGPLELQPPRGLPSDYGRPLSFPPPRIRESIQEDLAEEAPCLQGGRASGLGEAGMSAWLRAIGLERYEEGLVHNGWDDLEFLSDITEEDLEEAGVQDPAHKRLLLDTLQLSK

SHIP1 = target: T5, SHIP1 (Homo sapiens, UniProt Q92835)
T5 construct: made in house; host or cells: HEK293 (transient transfection), unpurified extract
T5 sequence (Q92835 1-1189): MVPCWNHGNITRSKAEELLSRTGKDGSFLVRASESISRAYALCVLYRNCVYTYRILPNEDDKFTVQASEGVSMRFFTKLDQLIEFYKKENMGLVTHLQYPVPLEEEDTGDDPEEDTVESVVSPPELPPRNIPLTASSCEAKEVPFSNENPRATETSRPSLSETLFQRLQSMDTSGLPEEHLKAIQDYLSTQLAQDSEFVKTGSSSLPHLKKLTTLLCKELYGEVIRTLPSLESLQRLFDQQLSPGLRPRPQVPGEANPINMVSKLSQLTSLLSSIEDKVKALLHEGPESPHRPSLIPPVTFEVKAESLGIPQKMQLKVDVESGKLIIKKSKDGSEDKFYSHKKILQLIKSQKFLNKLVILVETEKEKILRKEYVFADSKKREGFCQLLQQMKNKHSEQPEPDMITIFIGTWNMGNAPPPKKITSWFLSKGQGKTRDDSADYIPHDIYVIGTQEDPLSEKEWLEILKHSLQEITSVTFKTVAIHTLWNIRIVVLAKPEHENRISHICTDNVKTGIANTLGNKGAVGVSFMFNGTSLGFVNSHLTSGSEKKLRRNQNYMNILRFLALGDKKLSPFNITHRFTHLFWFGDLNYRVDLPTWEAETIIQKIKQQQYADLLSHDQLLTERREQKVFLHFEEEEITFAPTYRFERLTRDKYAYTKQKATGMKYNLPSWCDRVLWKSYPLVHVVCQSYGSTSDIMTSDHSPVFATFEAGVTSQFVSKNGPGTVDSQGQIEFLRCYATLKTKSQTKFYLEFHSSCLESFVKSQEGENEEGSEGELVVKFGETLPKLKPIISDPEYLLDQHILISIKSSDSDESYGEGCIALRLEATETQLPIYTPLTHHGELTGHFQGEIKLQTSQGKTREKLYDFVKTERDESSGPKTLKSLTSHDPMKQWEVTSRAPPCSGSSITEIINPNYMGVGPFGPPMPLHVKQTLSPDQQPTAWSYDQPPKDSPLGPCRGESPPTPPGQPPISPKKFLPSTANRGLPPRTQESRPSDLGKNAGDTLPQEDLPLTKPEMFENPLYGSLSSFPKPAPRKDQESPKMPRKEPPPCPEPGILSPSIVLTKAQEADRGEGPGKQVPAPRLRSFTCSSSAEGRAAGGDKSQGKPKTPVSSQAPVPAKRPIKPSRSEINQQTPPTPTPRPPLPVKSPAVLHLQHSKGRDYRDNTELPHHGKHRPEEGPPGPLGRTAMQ

GRB7 = target: T6, GRB7 (Homo sapiens, UniProt Q14451)
T6 construct: the DNA-tagged SH2 domain concentrations used in this study were <0.1 nM; made in house; host or cells: HEK293 (transient transfection; unpurified extract)
T6 sequence (Q14451 431-527 limits assumed): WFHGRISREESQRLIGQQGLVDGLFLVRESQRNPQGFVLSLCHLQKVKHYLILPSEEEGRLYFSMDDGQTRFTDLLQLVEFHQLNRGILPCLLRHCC

## CC[C@H](C)[C@H](NC(=O)[C@@H](NC(=O)[C@H](CC(C)C)NC(=O)[C@H](Cc1ccc(OP(=O)(O)O)cc1)NC(=O)[C@H](CCCNC(=N)N)NC(=O)[C@H](CCC(N)=O)NC(=O)[C@@H]1CCCN1C(=O)[C@H](CC(=O)O)NC(C)=O)C(C)C)C(=O)N[C@@H](CCC(N)=O)C(=O)NCC(=O)N[C@@H](CC(=O)O)C(=O)N[C@@H](CCC(=O)O)C(=O)N[C@@H](CC(=O)O)C(N)=O [Ac-DPQRpYLVIQGDED-NH2] (Ac-DPQR[pY]LVIQGDED-NH2)
PLCG2(SH2dom.N-term.)
  Kd: 0.521 ± 0.0254 µM

## CC(=O)N[C@@H](CCC(=O)O)C(=O)N1CCC[C@H]1C(=O)N[C@@H](C)C(=O)N[C@@H](Cc1c[nH]cn1)C(=O)N[C@@H](C)C(=O)N[C@@H](Cc1ccc(OP(=O)(O)O)cc1)C(=O)N[C@@H](C)C(=O)N[C@@H](CCC(N)=O)C(=O)N1CCC[C@H]1C(=O)N[C@@H](CCC(N)=O)C(=O)N[C@H](C(=O)N[C@H](C(N)=O)[C@@H](C)O)[C@@H](C)O [Ac-EPAHApYAQPQTT-NH2] (Ac-EPAHA[pY]AQPQTT-NH2)
CRK
  Kd: 1.52 ± 0.695 µM

## CSCC[C@H](NC(=O)[C@@H](NC(=O)[C@H](CCC(=O)O)NC(=O)[C@H](Cc1ccc(OP(=O)(O)O)cc1)NC(=O)[C@H](CC(C)C)NC(=O)[C@@H]1CCCN1C(=O)[C@H](CC(=O)O)NC(=O)[C@@H]1CCCN1C(C)=O)C(C)C)C(=O)N[C@@H](CC(C)C)C(=O)N[C@@H](CCCCN)C(=O)N[C@@H](CS)C(=O)N[C@@H](Cc1c[nH]c2ccccc12)C(=O)N[C@@H](CC(=O)O)C(N)=O (Ac-PDPL[pY]EVMLKCWD-NH2)
GRB14
  Kd: 0.298 ± 0.131 µM

## CC(=O)N[C@@H](CC(N)=O)C(=O)N[C@@H](CC(N)=O)C(=O)N[C@H](C(=O)N[C@@H](C)C(=O)N[C@@H](Cc1ccc(OP(=O)(O)O)cc1)C(=O)N[C@@H](CO)C(=O)N[C@@H](Cc1ccc(O)cc1)C(=O)N[C@@H](CC(C)C)C(=O)N[C@@H](CC(C)C)C(=O)N[C@@H](CC(N)=O)C(=O)N[C@@H](CCCNC(=N)N)C(N)=O)C(C)C [Ac-NNVApYSYLLNR-NH2] (Ac-NNVA[pY]SYLLNR-NH2)
SHIP2
  Kd: 3.31 ± 0.622 µM
SHIP1
  Kd: 0.241 ± 0.0718 µM

## CC(=O)N1CCC[C@H]1C(=O)N[C@@H](CCC(=O)O)C(=O)N[C@@H](Cc1ccc(OP(=O)(O)O)cc1)C(=O)N[C@H](C(=O)N[C@@H](CC(N)=O)C(=O)N[C@@H](CCC(N)=O)C(N)=O)C(C)C [Ac-PEpYVNQ-NH2] (Ac-PE[pY]VNQ-NH2)
GRB7
  Kd: 4.47 ± 0.557 µM
